Source: patent US10513521B2, “Compositions and methods for inhibiting BMP” (The Brigham and Women's Hospital, Inc., priority 2014, dated 2019)
Where a chain is given by its changes, count along the chain named.

Tests used:
ALK1 = ALK1 (Homo sapiens, UniProt P37023); assay: TR-FRET enzymatic ALK kinase assay, ALK1
Experimental: (§1) Briefly, the ALKs enzymatic assay was initiated by dispense 2.5 μl enzyme in 1× kinase reaction buffer. The assay plate was then added with compounds followed by incubation at room temperature for 10 minutes. Then 2.5 μl/well substrate was added.

ALK5 = biological target: T1, ALK5 (Homo sapiens, UniProt P36897); assay: TR-FRET enzymatic ALK kinase assay, ALK5
T1 sequence (P36897 34-503): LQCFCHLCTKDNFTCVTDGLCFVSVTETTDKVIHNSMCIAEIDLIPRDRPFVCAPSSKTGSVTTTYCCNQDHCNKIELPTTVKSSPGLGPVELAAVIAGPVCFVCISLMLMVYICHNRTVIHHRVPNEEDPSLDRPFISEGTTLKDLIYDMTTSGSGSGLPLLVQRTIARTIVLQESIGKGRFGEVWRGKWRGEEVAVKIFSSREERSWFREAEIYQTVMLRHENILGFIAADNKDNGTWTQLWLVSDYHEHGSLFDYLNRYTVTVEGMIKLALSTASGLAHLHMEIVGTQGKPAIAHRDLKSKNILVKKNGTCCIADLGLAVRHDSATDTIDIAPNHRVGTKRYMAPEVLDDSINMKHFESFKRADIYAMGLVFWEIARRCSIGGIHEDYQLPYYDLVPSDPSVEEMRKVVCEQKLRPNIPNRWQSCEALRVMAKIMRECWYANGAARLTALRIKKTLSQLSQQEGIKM
Experimental: Six ALK kinase enzyme assays were developed for determination of compound activities on ALK1, ALK2, ALK3, ALK4, ALK5 and ALK6.
as §1

ALK4 = biological target: T2, ALK4 (Homo sapiens, UniProt P36896); assay: TR-FRET enzymatic ALK kinase assay, ALK4
T2 sequence (P36896 24-505): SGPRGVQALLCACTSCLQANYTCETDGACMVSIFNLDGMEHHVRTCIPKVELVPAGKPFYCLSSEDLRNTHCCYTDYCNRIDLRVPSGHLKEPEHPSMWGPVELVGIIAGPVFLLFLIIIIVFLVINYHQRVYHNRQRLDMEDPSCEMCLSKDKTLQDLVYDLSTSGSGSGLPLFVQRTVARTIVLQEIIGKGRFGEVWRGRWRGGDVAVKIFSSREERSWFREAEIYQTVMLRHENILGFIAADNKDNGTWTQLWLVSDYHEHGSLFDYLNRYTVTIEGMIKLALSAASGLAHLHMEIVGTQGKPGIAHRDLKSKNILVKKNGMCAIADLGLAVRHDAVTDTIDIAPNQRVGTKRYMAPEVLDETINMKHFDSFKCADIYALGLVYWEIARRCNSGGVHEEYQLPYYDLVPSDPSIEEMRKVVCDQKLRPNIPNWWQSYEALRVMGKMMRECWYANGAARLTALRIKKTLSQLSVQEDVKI
Experimental: as §1

ALK2 [1] = biological target: T3, ALK2 (Mus musculus, UniProt P37172); assay: HTRF pSMAD1 cell-based ALK2 assay (C2C12 cells, BMP6 as agonist); conditions: cell-based assay, BMP6; read-out: Cell IC50 BMP6
T3 construct: The C2C12 cell line was selected for the measurement of ALK2 activity using BMP6 as the agonist; host or cells: C2C12
T3 sequence (P37172 21-509): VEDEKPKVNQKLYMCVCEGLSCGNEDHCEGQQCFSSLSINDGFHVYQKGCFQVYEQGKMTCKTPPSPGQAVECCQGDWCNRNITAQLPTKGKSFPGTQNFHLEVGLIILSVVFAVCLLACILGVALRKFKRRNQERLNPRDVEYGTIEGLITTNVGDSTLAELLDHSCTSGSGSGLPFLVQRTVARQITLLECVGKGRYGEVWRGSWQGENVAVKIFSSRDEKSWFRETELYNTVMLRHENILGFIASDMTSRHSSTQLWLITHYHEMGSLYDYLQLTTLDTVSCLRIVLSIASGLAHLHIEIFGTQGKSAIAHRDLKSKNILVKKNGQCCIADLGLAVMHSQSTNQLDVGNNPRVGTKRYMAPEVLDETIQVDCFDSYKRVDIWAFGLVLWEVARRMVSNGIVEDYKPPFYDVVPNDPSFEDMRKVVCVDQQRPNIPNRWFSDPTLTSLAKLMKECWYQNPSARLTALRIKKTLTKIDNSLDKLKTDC
Procedure, shortened: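 Cells pre-starved, plated in 0.1% FBS medium for 4 h, compound added for 30 min, then stimulated 30 min with BMP9 (BAOEC) or BMP6 (C2C12). Phospho-SMAD1 measured by HTRF after overnight room-temperature detection incubation.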

ALK3 = ALK3 (Homo sapiens, UniProt P36894); assay: TR-FRET enzymatic ALK kinase assay, ALK3
Experimental: as §1

ALK2 [2] = biological target: T4, ALK2 (Homo sapiens, UniProt Q04771); assay: TR-FRET enzymatic ALK kinase assay, ALK2
T4 sequence (Q04771 21-509): T3 sequence (P37172 21-509) with V1M, Q10P, I121L, E162D, S310P
Experimental: as §1

[3] = Cell-based assay, TGFb1 (Cell IC50)
ALK6 = ALK6 (Homo sapiens, UniProt O00238); assay: TR-FRET enzymatic ALK kinase assay, ALK6
ALK6, sequence (O00238 14-502): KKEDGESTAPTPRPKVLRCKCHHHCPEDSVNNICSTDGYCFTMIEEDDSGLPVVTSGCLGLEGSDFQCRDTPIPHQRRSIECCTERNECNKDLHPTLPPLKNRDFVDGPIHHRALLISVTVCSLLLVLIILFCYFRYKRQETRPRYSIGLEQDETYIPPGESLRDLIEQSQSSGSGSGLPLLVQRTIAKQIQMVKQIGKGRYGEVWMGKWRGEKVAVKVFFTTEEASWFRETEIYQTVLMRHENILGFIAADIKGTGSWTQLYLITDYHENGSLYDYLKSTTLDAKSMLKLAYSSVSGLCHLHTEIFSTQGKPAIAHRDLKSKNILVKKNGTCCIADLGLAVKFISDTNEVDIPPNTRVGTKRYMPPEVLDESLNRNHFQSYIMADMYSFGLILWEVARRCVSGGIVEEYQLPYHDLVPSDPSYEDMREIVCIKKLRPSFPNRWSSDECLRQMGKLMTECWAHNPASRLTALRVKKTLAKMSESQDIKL
Experimental: as §1

ALK3, sequence (P36894 24-532): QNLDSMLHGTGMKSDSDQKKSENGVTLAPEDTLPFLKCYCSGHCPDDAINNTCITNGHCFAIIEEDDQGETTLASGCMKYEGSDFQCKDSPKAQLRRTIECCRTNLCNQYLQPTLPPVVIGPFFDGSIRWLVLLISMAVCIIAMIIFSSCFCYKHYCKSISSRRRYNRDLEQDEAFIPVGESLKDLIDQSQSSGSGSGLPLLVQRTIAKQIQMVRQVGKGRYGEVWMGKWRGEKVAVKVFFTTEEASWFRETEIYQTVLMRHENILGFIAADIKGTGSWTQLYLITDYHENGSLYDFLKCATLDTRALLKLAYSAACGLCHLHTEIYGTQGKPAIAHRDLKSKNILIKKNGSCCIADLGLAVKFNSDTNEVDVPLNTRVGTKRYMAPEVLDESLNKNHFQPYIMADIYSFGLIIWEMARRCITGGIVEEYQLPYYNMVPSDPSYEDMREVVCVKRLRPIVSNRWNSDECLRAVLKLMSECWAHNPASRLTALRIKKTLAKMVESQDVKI
ALK1, sequence (P37023 22-503): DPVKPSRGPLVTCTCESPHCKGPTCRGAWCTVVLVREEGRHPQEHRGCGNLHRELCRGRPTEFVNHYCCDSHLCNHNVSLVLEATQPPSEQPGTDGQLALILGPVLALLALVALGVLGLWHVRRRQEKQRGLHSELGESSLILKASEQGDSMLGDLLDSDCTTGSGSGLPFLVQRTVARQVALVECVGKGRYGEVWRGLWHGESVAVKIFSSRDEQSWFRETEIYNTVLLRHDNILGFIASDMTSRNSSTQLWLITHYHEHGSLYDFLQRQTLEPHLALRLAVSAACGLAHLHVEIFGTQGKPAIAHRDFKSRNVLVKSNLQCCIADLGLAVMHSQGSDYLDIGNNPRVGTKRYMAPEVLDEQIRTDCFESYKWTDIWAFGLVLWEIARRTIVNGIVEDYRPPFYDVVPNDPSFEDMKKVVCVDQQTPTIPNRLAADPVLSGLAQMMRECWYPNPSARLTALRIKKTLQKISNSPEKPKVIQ

Compound | IC50 (ALK1) | IC50 (ALK5) | IC50 (ALK4) | IC50 (ALK2 [1]) | IC50 (ALK3) | IC50 (ALK2 [2]) | IC50 [3] | IC50 (ALK6)
NC(=O)c1ccc(-c2cnn3cc(-c4ccc(N5CCNCC5)cc4)cnc23)c2ccccc12 [Compound 2, 4-(6-(4-(piperazin-1-yl)phenyl)pyrazolo[1,5-a]pyrimidin-3-yl)-1-naphthamide] | 0.018 µM | 56.6 µM | 11.2 µM | 0.028 µM | 0.147 µM | 0.0045 µM | 0.331 µM | 2.07 µM
NC(=O)c1cccc2c(-c3cnn4cc(-c5ccc(N6CCNCC6)cc5)cnc34)cccc12 [Compound 6, 5-(6-(4-(piperazin-1-yl)phenyl)pyrazolo[1,5-a]pyrimidin-3-yl)-1-naphthamide] | 0.031 µM | 11.2 µM | 2.69 µM | 0.021 µM | 0.03 µM | 0.007 µM | 0.764 µM | 0.105 µM
CNC(=O)c1cccc2c(-c3cnn4cc(-c5ccc(N6CCNCC6)cc5)cnc34)cccc12 [Compound 7, N-methyl-5-(6-(4-(piperazin-1-yl)phenyl)pyrazolo[1,5-a]pyrimidin-3-yl)-1-naphthamide] | 1.59 µM |  | 30.9 µM | 0.283 µM | 0.598 µM | 0.226 µM | 2.93 µM | 0.334 µM
CN(C)C(=O)c1cccc2c(-c3cnn4cc(-c5ccc(N6CCNCC6)cc5)cnc34)cccc12 [Compound 8, N,N-dimethyl-5-(6-(4-(piperazin-1-yl)phenyl)pyrazolo[1,5-a]pyrimidin-3-yl)-1-naphthamide] | 8.08 µM |  |  | 2.07 µM | 10.8 µM | 6.56 µM | 5.54 µM | 20.7 µM
C[C@@H]1CNC[C@H](C)N1c1ccc(-c2cnc3c(-c4ccc(C(N)=O)c5ccccc45)cnn3c2)cc1 [Compound 9, 4-(6-(4-((2S,6R)-2,6-dimethylpiperazin-1-yl)phenyl)pyrazolo[1,5-a]pyrimidin-3-yl)-1-naphthamide] | 0.004 µM | 5.43 µM | 0.92 µM | 0.011 µM | 0.042 µM | 0.006 µM | 0.2 µM | 0.225 µM
NC(=O)c1ccc(-c2cnn3cc(-c4ccc(N5C[C@@H]6C[C@H]5CN6)cc4)cnc23)c2ccccc12 [Compound 11, 4-(6-(4-((1 S,4S)-2,5-diazabicyclo[2.2.1]heptan-2-yl)phenyl)pyrazolo[1,5-a]pyrimidin-3-yl)-1-naphthamide] | 0.03 µM | 7.02 µM | 2.99 µM | 0.055 µM | 0.112 µM | 0.007 µM | 0.645 µM | 2.06 µM
NC(=O)c1cccc2c(-c3cnn4cc(-c5ccc(N6C[C@@H]7C[C@H]6CN7)cc5)cnc34)cccc12 [Compound 12, 5-(6-(4-((1S,4S)-2,5-diazabicyclo[2.2.1]heptan-2-yl)phenyl)pyrazolo[1,5-a]pyrimidin-3-yl)-1-naphthamide] | 0.034 µM | 21.5 µM | 2.81 µM | 0.068 µM | 0.059 µM | 0.0083 µM | 1.24 µM | 0.26 µM
N=C(N)c1ccc(-c2cnn3cc(-c4ccc(N5CCNCC5)cc4)cnc23)cc1 [Compound 14, 4-(6-(4-(piperazin-1-yl)phenyl)pyrazolo[1,5-a]pyrimidin-3-yl)benzimidamide] | 3.06 µM | 15.6 µM |  | 4.2 µM | 17.6 µM | 0.916 µM | 44.1 µM | 16.9 µM
N=C(N)c1ccc(-c2cnn3cc(-c4ccc(N5CCNCC5)cc4)cnc23)c2ccccc12 [Compound 16, 4-(6-(4-(piperazin-1-yl)phenyl)pyrazolo[1,5-a]pyrimidin-3-yl)-1-naphthimidamide] | 0.405 µM |  | 73.9 µM | 0.89 µM | 4.93 µM | 0.084 µM | 13.5 µM | 74.8 µM
CC(C)(CN1CCCCC1)Oc1ccc(-c2cnc3c(-c4ccc(C(N)=O)c5ccccc45)cnn3c2)cc1 [Compound 17, 4-(6-(4-((2-methyl-1-(piperidin-1-yl)propan-2-yl)oxy)phenyl)pyrazolo[1,5-a]pyrimidin-3-yl)-1-naphthamide] | 0.011 µM | 8.58 µM | 2.02 µM | 0.016 µM | 0.062 µM | 0.005 µM | 0.434 µM | 1.24 µM
C[C@@H]1CNC[C@H](C)N1c1ccc(-c2cnc3c(-c4ccc(C#N)c5ccccc45)cnn3c2)cc1 [Compound 19, 4-(6-(4-((2R,6S)-2,6-dimethylpiperazin-1-yl)phenyl)pyrazolo[1,5-a]pyrimidin-3-yl)-1-naphthonitrile] | 0.574 µM | 151 µM | 4.78 µM | 0.044 µM | 1.1 µM | 0.094 µM | 4.44 µM | 9.84 µM
C[C@@H]1CNC[C@H](C)N1c1ccc(-c2cnc3c(-c4cccc5c(CO)cccc45)cnn3c2)cc1 [Compound 20, (5-(6-(4-((2R,6S)-2,6-dimethylpiperazin-1-yl)phenyl)pyrazolo[1,5-a]pyrimidin-3-yl)naphthalen-1-yl)methanol] | 0.022 µM | 21.7 µM | 3.96 µM | 0.014 µM | 0.24 µM | 0.016 µM | 1.55 µM | 3.71 µM
CC(=O)c1cccc2c(-c3cnn4cc(-c5ccc(N6[C@H](C)CNC[C@@H]6C)cc5)cnc34)cccc12 [Compound 24, 1-(5-(6-(4-((2R,6S)-2,6-dimethylpiperazin-1-yl)phenyl)pyrazolo[1,5-a]pyrimidin-3-yl)naphthalen-1-yl)ethanone] | 0.107 µM | 26.9 µM | 1.45 µM | 0.333 µM | 0.059 µM | 0.03 µM | 0.58 µM | 0.3 µM
C[C@@H]1CNC[C@H](C)N1c1ccc(-c2cnc3c(-c4cccc5c(C#N)cccc45)cnn3c2)cc1 [Compound 25, 5-(6-(4-((2R,6S)-2,6-dimethylpiperazin-1-yl)phenyl)pyrazolo[1,5-a]pyrimidin-3-yl)-1-naphthonitrile] | 0.075 µM | 5.34 µM | 1.21 µM | 0.114 µM | 0.123 µM | 0.027 µM | 2.58 µM | 0.568 µM
